Test results as given in patent US20070032477A1, “Pteridine derivatives useful for making pharmaceutical compositions” (priority 2003, published 2007).

Assays:
[1] = tested on: CII induced rheumatoid arthritis in DBA mice; experiment: Collagen type II induced model of rheumatoid arthritis; conditions: mice in vivo; example 17 up to 40 mg/kg/day; methotrexate 10 mg/kg/day, 3 times a week
Description: Collagen type II (hereinafter referred as CII) induced experimental model of rheumatoid arthritis (hereinafter referred as RA) in DBA mice is widely accepted as the most relevant and predictive preclinical model for RA. In this model, DBA mice are immunized with CII, the collagen type mainly present in the joint structures, together with complete Freund Adjuvant in their tail. 2 to 3 weeks later, several of the immunized mice start to develop arthritis in the four footpaths. In order to further worsen the disease, mice are given a second CII boost at three weeks after the first immunisation, this time however in a footpath. Because the immune system is already immunised in these mice, this rapidly provokes a severe swelling of the injected footpath (named Delayed Type Hypersensitivity or DTH) which can be used as a measurement for T-cell activation. Within a few days after the booster, almost all untreated animals start developing symptoms of arthritis. RA development is scored from 0 to 16 (16 being severe clinical arthritis in all four footpaths). At the end of the study (3 weeks after the CII boost) antibody formation was determined against CII and histology performed on the footpaths.
The efficiency of the pteridine derivative of example 17 (administered in an amount of 20 mg/kg/day, started one day before the CII boost) was explored in this CII-model.

[2] = tested on: B16BL/6 melanomasarcoma cells in C57BL/6 mice; experiment: Inhibition of the metastasis of melanoma cells in mice; type: in vivo; conditions: for proportion of mice having metastasis: inguinal and/or para-aortic lymph nodes
Description: C57BL/6 mice were injected with 1.5×10^6 B16BL/6 melanomasarcoma cells subcutaneously in the foot path and were divided, three days later, into 4 groups: • a control 1 group of 6 mice receiving only vehicle 3 times a week; • a control 2 group of 5 mice receiving a lethal dose of TNF (15 μg, subcutaneously) 3 times a week; • a group 3 receiving the pteridine derivative of example 17 alone 3 times a week at 20 mg/kg • a group 4 of 7 mice receiving the pteridine derivative of example 17 in an amount of 20 mg/kg intraperitenously on days 3, 4, and 5 and also receiving TNF (15 μg, subcutaneously) on day 5. This combined treatment with TNF and the pteridine derivative of example 17 was continued for 2 weeks.
Reduction of tumor size is also true in mice of group 3, although to a lesser extent (198 mm^2).
All mice of control group 2 died within the very first days of treatment, whereas mortality was 3/7 in mice of group 4.
At the end of experiment, it was looked macroscopically at black metastasis in inguinal and/or para-aortic lymphoneuds in all tumor bearing groups of mice. The proportions of mice having metastasis were: • 4/5 mice in control group 1, • 0/4 mice in group 4, and • 2/4 in group 3.

[3] = tested on: TNBS-induced colitis in C57 BL/6 mice; experiment: Trinitrobenzenesulfonate-induced colitis test in mice (Example 209); type: in vivo
Description: C57 BL/6 mice (4-5 weeks) were obtained from M&B (Denmark), bred under standard pathogen-free conditions and maintained in the certified animal facility of the University Hospital Gasthuisberg, Catholic University of Leuven (Belgium). Experiments were approved by the local Ethical Committee of Animal Experimentation. Mice were sensitized twice 10 days and 5 days before rectal challenge. For sensitization, a 2×2 cm field of the abdominal skin was shaved, and 100 μl of 5 mg trinitrobenzenesulfonate (hereinafter referred as TNBS) in 50% ethanol solution was applied. On the day of challenge, mice were first lightly anesthetized with metofane. Subsequently TNBS (1 mg in 50% ethanol) was administered per rectum via a round-tip needle equipped with a 1-ml syringe. The tip of the needle was inserted so that the tip was about 3.5 to 4 cm proximal to the anal verge and TNBS was injected with a total volume of 100 μl. To ensure distribution of TNBS within the entire colon and cecum, mice were held in a vertical position for 1 minute after the injection.
The compound of example 176 (2-amino-6-(3,4-dimethoxyphenyl)-4-[N-(4-methyl-phenyl)-piperazin-1-yl]pteridine) was given to the mice by daily gavage at the dose of 20 mg/kg (400 μg in 100 μl H2O). Control mice were treated with 100 μl H2O only. Body weights of all animals were recorded daily in order to follow the development of inflammatory colitis over a period of 10 days.
Both macroscopic and microscopic histology evaluations were performed as follows. Mice were sacrificed at day 2 by cervical […], the colon was excised and was immediately examined visually, and damage was scored on a 0-12 scale. Colon sections were then fixed in 6% formalin and embedded in paraffin, cut into sections, and then stained with hematoxylin and eosin. Stained sections were examined for evidence of colitis using as criteria the presence of cell infiltration, elongation and/or distortion of crypts, crypt abscesses, reduction in goblet cell number, frank ulceration, and oedema formation.
MPO activity was measured as follows. Two days after intracolonic injection of TNBS, 50 mg colon was removed, homogenised and sonicated on ice. Samples were frozen in liquid nitrogen and subsequently thawed in a water bath at 37° C., each step lasted 3 minutes and the procedure was repeated for two cycles. After centrifugation, an aliquot of the supernatant was then allowed to react with a solution of tetra-methyl-benzidine (1.6 mM) and 0.1 mM H2O2. The rate of change in absorbance was measured spectrophotometrically at 460 nm. MPO activity was defined as the quantity of enzyme degrading 1 μmole of peroxide/minute at 37° C. and was expressed in units per gram weight of wet tissue. Sample enzyme activity was measured from a standard curve of known MPO unit activity (assay sensitivity 5×10^−7 units per well).
Quantitative Reverse Transcriptase (RT)-PCR for cytokine mRNA was performed as follows: part of the colon tissues, removed on day 2 after TNBS application, was immediately frozen in liquid nitrogen after dissection and stored at −70° C. until extraction of total RNA using a method well known in the art. A constant amount of 1 μg of total RNA was used for oligo-(dT)-primed cDNA synthesis (Ready-to-go-kit, commercially available from Pharmacia, Sweden). After 90 minutes at 37° C., the reverse transcriptase was inactivated by incubating the cDNA samples for 5 minutes at 95° C. The amount of cDNA was quantified by real-time RT-PCR using specific primers for β-actin and TNF, with the ABI Prism 7700 Sequence Detectin System (SDS) commercially available from Applied Biosystems (California). PCR was performed in a total volume of 25 μl, containing 5 μl cDNA and 20 μl mix with the TaqMan® Universal PCR Master Mix (2×) (Applied Biosystems) combined with 300 nM of the primer and 100 nM of the probe. […]

[4] = group 4: example 17 20 mg/kg i.p. combined with TNF 15 μg s.c.
[5] = daily gavage 20 mg/kg, versus control mice

SMILES | mortality or cytotoxic effect on increasing the dose [1] | tumor size ([2]; group 3: example 17 alone 3 times a week at 20 mg/kg) [mm^2] | proportion of mice having metastasis ([2]; group 3: example 17 alone) | mortality [2, 4] | tumor size [2, 4] [mm^2] | proportion of mice having metastasis ([2]; group 4: example 17 combined with TNF) | recovery of original body weight earlier than control mice ([3]; daily gavage 20 mg/kg) | microscopic score ([3]; daily gavage 20 mg/kg, day 2) | average macroscopic score ([3]; daily gavage 20 mg/kg, day 2, 0-12 scale) | tissue MPO activity in colon ([3]; daily gavage 20 mg/kg, two days after TNBS) [U/g] | decrease of tissue MPO activity [3, 5] [fold] | reduction in average macroscopic score [3, 5] [%] | mRNA for other cytokines (IFN-γ and IL-18) in colon ([3]; day 2, compared to control mice) | cytokine mRNA level for TNF in colon ([3]; day 2, ratio to β-actin multiplied by 10^6) | Anti-TNBS antibody (IgG1 and IgG2a) levels ([3]; serum day 10, compared to control mice)
COc1ccc(-c2cnc3nc(N)nc(N4CCN(C(=O)COc5ccccc5)CC4)c3n2)cc1OC [Example 17, 2-amino-4-[(N-phenoxyacetyl)-piperazin-1-yl]-6-(3,4-dimethoxy-phenyl)pteridine] | no mortality or cytotoxic effect | 198 | 2/4 | 3/7 | 120 | 0/4 | – | – | – | – | – | – | – | – | –
COc1ccc(-c2cnc3nc(N)nc(N4CCN(c5ccc(C)cc5)CC4)c3n2)cc1OC [Example 176, 2-amino-6-(3,4-dimethoxyphenyl)-4-((4-methylphenyl)-piperazin-1-yl)pteridine] | – | – | – | – | – | – | at least 4 days | 5.7±0.6 | 6.2±0.4 | 6.7±1.4 | 2 | 30 | no difference | 18.1±8.5 | similar
